Structures can show the parent of a compound that is named as a salt. Where two headings read alike, the source gives them in different places. *1 amine or outer side, *2 acyl side, *3 side chain or, on linkers, in order; H or OH if unused. Where a SMILES comes first, the peptide text is derived from it. Bridges are numbered along the chain shown (N, C = ends). Roman numbers before positions name the chains, in order. [ ]: non-standard residue; d: D form. Actinocin(9to1) = Cc1c2oc3c(C)ccc(C(=O)[*:1])c3nc-2c(C(=O)[*:2])c(N)c1=O; NMeV = CN[C@H](C(=O)O)C(C)C; Sar = CNCC(=O)O
Tests used:
Experiment in all cases: In vitro combination study with Compound 1, Cell Titer-Glo (ATP) cell viability, 72 h;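 on Call, anti-proliferative effect of combination with Compound 1, A549: Ten-by-ten dose matrices of the two agents in duplicate, compounds added 16 h post-plating, activity relative to DMSO vehicle wells, call reflects synergy evaluation from luminescence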;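 on Call, anti-proliferative effect of combination with Compound 1, COLO205: Ten-by-ten dose matrices of both agents in duplicate plus single-agent dilutions, luminescent ATP read-out, percent activity per well relative to DMSO vehicle wells, synergy call from these matrices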;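 on Call, anti-proliferative effect of combination with Compound 1, H460: Ten-by-ten dose matrices of both drugs alongside single-agent dilutions, luminescence read 72 hours after compound addition, percent activity per well versus vehicle (DMSO) plate controls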;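 on Call, anti-proliferative effect of combination with Compound 1, HCT116: combination call from 10×10 dose matrices in duplicate, graded by synergy, with percent activity per well relative to DMSO vehicle controls on the same plate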;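 on Call, anti-proliferative effect of combination with Compound 1, SW620: Ten-by-ten dose matrices of both drugs in 384-well plates, luminescent ATP read-out, synergy evaluated against single-agent and DMSO vehicle controls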
[1] = system: SW620 cancer cells; type: cell-based;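 further: Ten-by-ten dose matrices of both drugs in 384-well plates, luminescent ATP read-out, synergy evaluated against single-agent and DMSO vehicle controls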
[2] = system: H460 cancer cells; type: cell-based;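 further: Ten-by-ten dose matrices of both drugs alongside single-agent dilutions, luminescence read 72 hours after compound addition, percent activity per well versus vehicle (DMSO) plate controls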
Experimental: (§1) Each combination pair was evaluated in an individual 384-well plate which contained variable doses of both compounds as single agents, as well as two, ten-by-ten matrices (in duplicate) that contained mixtures of the two test compounds. In brief, compounds were added to the cell test plates 16 hours after cell plating and then assessed for viability 72 hours later. Continuous cultures of tumor cells were maintained under standard cell culturing conditions (i.e. in a humidified chamber set at 37° C., containing atmosphere 5% carbon dioxide). […] Seventy-two hours after compound addition, ATP levels were measured to assess cell viability. Plating densities were chosen to ensure optimal linear growth over the 72 hour period.
(§2) Compound dilution and compound delivery to the assay plates were done on HighRes Robotic System (HighRes Biosolutions, Woburn, Mass., USA) with Echo™ Liquid Handler (Labcyte, Sunnyvale, Calif., USA). […] Next, these were used for compound transfer into cell assay plates. All wells were back-filled to give a constant percentage of DMSO.
(§3) The final DMSO concentration was held constant in all wells across the plate and was maintained at less than 0.5%. […] Cells treated with vehicle (DMSO) in two rows, or single compound serial dilutions in one plate columns/row served as the untreated control and single compound controls, respectively.
(§4) Compound activity in A549, COLO205, H460, HCT116, SW48, SW620 cancer cell lines was assessed using Cell Titer-Glo® (Promega [Madison, Wis., USA]). After 72 hours incubation, the plates were treated as per package insert protocol for the Promega Luminescence ATP Detection Systems. Briefly, 25 μL of cell lysis/substrate solution (provided in kit form) was added to each well and the plate was incubated at room temperature for 10 minutes. Luminescence was measured using a PHERAstar multi-label counter (BMG Labtech [Ortenberg, Germany]) or LEADseeker (GE Healthcare Life Sciences [Piscataway, N.J., USA]).
(§5) Numerical luminescence values were analyzed to generate EC50 curves and evaluate synergy. Raw Data reader files were uploaded along with automation workfiles that defined the plate and well contents. Percent activities were calculated for each well versus plate controls.
(§6) Each plate representing a single drug combination was analyzed separately. First, the viability measurements were normalized by scaling the data so that the median of the negative controls was 0 and the median of the positive controls was 100.
(§7) For the combination analysis, a response surface model was used to describe the relationship between the normalized viability and the drug concentrations. The data were fit to the model by minimizing the residual sum of squares. Based on the fitted response surface, plots of constant viability, called isobolograms, were produced.
(§8) The Combination Index and Nonlinear Blending were used as measures of drug synergy. To calculate Combination Index the 50% isobologram (which is the dose contour that has 50% viability) was used. […] A standard procedure was created to produce a call in order to characterize the viability effects for each combination (synergy, additivity, subadditivity, or antagonism). If the Combination Index existed then these measures were used to make the call.

[3] = system: HCT116 cancer cells; type: cell-based;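 further: combination call from 10×10 dose matrices in duplicate, graded by synergy, with percent activity per well relative to DMSO vehicle controls on the same plate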
[4] = system: COLO205 cancer cells; type: cell-based, human;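 further: Ten-by-ten dose matrices of both agents in duplicate plus single-agent dilutions, luminescent ATP read-out, percent activity per well relative to DMSO vehicle wells, synergy call from these matrices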
[5] = system: A549 cancer cells; type: cell-based;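 further: Ten-by-ten dose matrices of the two agents in duplicate, compounds added 16 h post-plating, activity relative to DMSO vehicle wells, call reflects synergy evaluation from luminescence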
Experimental: as §1, §2, §3, §4, §5, §6, §7, §8

[6] = Table 5 drug combined with Compound 1, 72 h
[7] = DNA damaging agent combined with Compound 1, 72 h

Cc1cc2c(C(C)C)c(O)c(O)c(C=O)c2c(O)c1-c1c(C)cc2c(C(C)C)c(O)c(O)c(C=O)c2c1O [AT101]
Call, anti-proliferative effect of combination with Compound 1, SW620 [1]: Additivity (key: Inconclusive: Any; Additivity: 0.7 to 1.3; Synergy: 0 to 0.7; Subadditivity: 1.3 to 2; Antagonism: >2) | Call, anti-proliferative effect of combination with Compound 1, H460 [2]: Additivity (key: Inconclusive: Any; Additivity: 0.7 to 1.3; Synergy: 0 to 0.7; Subadditivity: 1.3 to 2; Antagonism: >2) | Call, anti-proliferative effect of combination with Compound 1, HCT116 [3]: Additivity (key: Inconclusive: Any; Additivity: 0.7 to 1.3; Synergy: 0 to 0.7; Subadditivity: 1.3 to 2; Antagonism: >2) | Call, anti-proliferative effect of combination with Compound 1, COLO205 [4]: Additivity (key: Inconclusive: Any; Additivity: 0.7 to 1.3; Synergy: 0 to 0.7; Subadditivity: 1.3 to 2; Antagonism: >2) | Call, anti-proliferative effect of combination with Compound 1, A549 [5]: Additivity (key: Inconclusive: Any; Additivity: 0.7 to 1.3; Synergy: 0 to 0.7; Subadditivity: 1.3 to 2; Antagonism: >2)

CCNC(=O)c1noc(-c2cc(C(C)C)c(O)cc2O)c1-c1ccc(CN2CCOCC2)cc1 [AUY-922]
Call, anti-proliferative effect of combination with Compound 1, SW620 [1, 6]: Additivity (0.7 to 1.3) | Call, anti-proliferative effect of combination with Compound 1, HCT116 [3, 6]: Additivity (0.7 to 1.3) | Call, anti-proliferative effect of combination with Compound 1, COLO205 [4, 6]: Additivity (0.7 to 1.3) | Call, anti-proliferative effect of combination with Compound 1, A549 [5, 6]: Additivity (0.7 to 1.3)

CN1CC[C@H](c2c(O)cc(O)c3c(=O)cc(-c4ccccc4Cl)oc23)[C@H](O)C1 [Alvocidib]
Call, anti-proliferative effect of combination with Compound 1, SW620 [1, 6]: Subadditivity (1.3 to 2) | Call, anti-proliferative effect of combination with Compound 1, HCT116 [3, 6]: Additivity (0.7 to 1.3) | Call, anti-proliferative effect of combination with Compound 1, COLO205 [4, 6]: Additivity (0.7 to 1.3) | Call, anti-proliferative effect of combination with Compound 1, A549 [5, 6]: Additivity (0.7 to 1.3)

C[C@@]1(CO)[C@H](O)CC[C@@]2(C)[C@H]1CC[C@H]1C[C@@H]3C[C@@]12CC[C@]3(O)COC(=O)CN.Cl [Aphidicolin glycinate]
Call, anti-proliferative effect of combination with Compound 1, SW620 [1, 7]: Additivity (0.7 to 1.3) | Call, anti-proliferative effect of combination with Compound 1, H460 [2, 7]: Additivity (0.7 to 1.3) | Call, anti-proliferative effect of combination with Compound 1, HCT116 [3, 7]: Synergy (0 to 0.7) | Call, anti-proliferative effect of combination with Compound 1, COLO205 [4, 7]: Additivity (0.7 to 1.3) | Call, anti-proliferative effect of combination with Compound 1, A549 [5]: Additivity (key: Inconclusive: Any; Additivity: 0.7 to 1.3; Synergy: 0 to 0.7; Subadditivity: 1.3 to 2; Antagonism: >2)

Nc1cc(C(F)(F)F)c(-c2cc(N3CCOCC3)nc(N3CCOCC3)n2)cn1 [BKM-120]
Call, anti-proliferative effect of combination with Compound 1, SW620 [1, 6]: Additivity (0.7 to 1.3) | Call, anti-proliferative effect of combination with Compound 1, H460 [2, 6]: Additivity (0.7 to 1.3) | Call, anti-proliferative effect of combination with Compound 1, HCT116 [3, 6]: Additivity (0.7 to 1.3) | Call, anti-proliferative effect of combination with Compound 1, COLO205 [4, 6]: Additivity (0.7 to 1.3) | Call, anti-proliferative effect of combination with Compound 1, A549 [5, 6]: Additivity (0.7 to 1.3)

CO/C1=C\C(C)=C\[C@@H](C)[C@@H](O)[C@@H](C)C/C(C)=C/C=C/[C@H](OC)[C@@H]([C@@H](C)[C@@H](O)[C@H](C)[C@@]2(O)C[C@@H](O)[C@H](C)[C@@H](C(C)C)O2)OC1=O [Bafilomycin A]
Call, anti-proliferative effect of combination with Compound 1, SW620 [1, 6]: Additivity (0.7 to 1.3) | Call, anti-proliferative effect of combination with Compound 1, H460 [2, 6]: Additivity (0.7 to 1.3) | Call, anti-proliferative effect of combination with Compound 1, HCT116 [3, 6]: Additivity (0.7 to 1.3) | Call, anti-proliferative effect of combination with Compound 1, COLO205 [4, 6]: Subadditivity (1.3 to 2) | Call, anti-proliferative effect of combination with Compound 1, A549 [5]: Additivity (key: Inconclusive: Any; Additivity: 0.7 to 1.3; Synergy: 0 to 0.7; Subadditivity: 1.3 to 2; Antagonism: >2)

C[C@H]1CCC/C=C/[C@@H]2C[C@H](O)C[C@H]2[C@H](O)/C=C/C(=O)O1 [Brefeldin A]
Call, anti-proliferative effect of combination with Compound 1, SW620 [1, 7]: Additivity (0.7 to 1.3) | Call, anti-proliferative effect of combination with Compound 1, H460 [2, 7]: Additivity (0.7 to 1.3) | Call, anti-proliferative effect of combination with Compound 1, HCT116 [3, 7]: Additivity (0.7 to 1.3) | Call, anti-proliferative effect of combination with Compound 1, COLO205 [4, 7]: Subadditivity (1.3 to 2) | Call, anti-proliferative effect of combination with Compound 1, A549 [5, 7]: Additivity (0.7 to 1.3)

CS(=O)(=O)OCCCCOS(C)(=O)=O [Busulfan]
Call, anti-proliferative effect of combination with Compound 1, COLO205 [4, 7]: Synergy (0 to 0.7)

C=CCNC1=C2C[C@@H](C)C[C@H](OC)[C@H](O)[C@@H](C)/C=C(\C)[C@H](OC(N)=O)[C@@H](OC)/C=C\C=C(/C)C(=O)NC(=CC1=O)C2=O [Compound 17-AAG]
Call, anti-proliferative effect of combination with Compound 1, SW620 [1, 6]: Additivity (0.7 to 1.3) | Call, anti-proliferative effect of combination with Compound 1, H460 [2, 6]: Additivity (0.7 to 1.3) | Call, anti-proliferative effect of combination with Compound 1, HCT116 [3, 6]: Additivity (0.7 to 1.3) | Call, anti-proliferative effect of combination with Compound 1, COLO205 [4, 6]: Additivity (0.7 to 1.3) | Call, anti-proliferative effect of combination with Compound 1, A549 [5, 6]: Additivity (0.7 to 1.3)

CO[C@H]1/C=C\C=C(/C)C(=O)NC2=CC(=O)C(NCCN(C)C)=C(C[C@@H](C)C[C@H](OC)[C@H](O)[C@@H](C)/C=C(\C)[C@@H]1OC(N)=O)C2=O [Compound 17-DMAG]
Call, anti-proliferative effect of combination with Compound 1, SW620 [1, 6]: Additivity (0.7 to 1.3) | Call, anti-proliferative effect of combination with Compound 1, H460 [2, 6]: Additivity (0.7 to 1.3) | Call, anti-proliferative effect of combination with Compound 1, HCT116 [3, 6]: Additivity (0.7 to 1.3) | Call, anti-proliferative effect of combination with Compound 1, COLO205 [4, 6]: Additivity (0.7 to 1.3) | Call, anti-proliferative effect of combination with Compound 1, A549 [5, 6]: Subadditivity (1.3 to 2)

Nc1ccn([C@@H]2O[C@H](CO)[C@@H](O)[C@@H]2O)c(=O)n1 [Cytarabine]
Call, anti-proliferative effect of combination with Compound 1, SW620 [1, 7]: Synergy (0 to 0.7) | Call, anti-proliferative effect of combination with Compound 1, H460 [2, 7]: Additivity (0.7 to 1.3) | Call, anti-proliferative effect of combination with Compound 1, HCT116 [3, 7]: Additivity (0.7 to 1.3) | Call, anti-proliferative effect of combination with Compound 1, COLO205 [4, 7]: Synergy (0 to 0.7) | Call, anti-proliferative effect of combination with Compound 1, A549 [5, 7]: Additivity (0.7 to 1.3)

CN(C)/N=N/c1[nH]cnc1C(N)=O [Dacarbazine]
Call, anti-proliferative effect of combination with Compound 1, HCT116 [3, 7]: Additivity (0.7 to 1.3)

Cc1c2oc3c(C)ccc(C(=O)N[C@@H]4C(=O)N[C@H](C(C)C)C(=O)N5CCC[C@H]5C(=O)N(C)CC(=O)N(C)[C@@H](C(C)C)C(=O)O[C@@H]4C)c3nc-2c(C(=O)N[C@@H]2C(=O)N[C@H](C(C)C)C(=O)N3CCC[C@H]3C(=O)N(C)CC(=O)N(C)[C@@H](C(C)C)C(=O)O[C@@H]2C)c(N)c1=O [Dactinomycin] (I: T[dV]P[Sar][NMeV] / II: T[dV]P[Sar][NMeV]; ester I:1-I:C, II:1-II:C; linker I:N-II:N via Actinocin(9to1))
Call, anti-proliferative effect of combination with Compound 1, SW620 [1, 7]: Additivity (0.7 to 1.3) | Call, anti-proliferative effect of combination with Compound 1, H460 [2, 7]: Additivity (0.7 to 1.3) | Call, anti-proliferative effect of combination with Compound 1, HCT116 [3, 7]: Additivity (0.7 to 1.3) | Call, anti-proliferative effect of combination with Compound 1, COLO205 [4, 7]: Additivity (0.7 to 1.3) | Call, anti-proliferative effect of combination with Compound 1, A549 [5]: Additivity (key: Inconclusive: Any; Additivity: 0.7 to 1.3; Synergy: 0 to 0.7; Subadditivity: 1.3 to 2; Antagonism: >2)

COc1cccc2c1C(=O)c1c(O)c3c(c(O)c1C2=O)C[C@@](O)(C(=O)CO)C[C@@H]3O[C@H]1C[C@H](N)[C@H](O)[C@H](C)O1 [Doxorubicin hydrochloride]
Call, anti-proliferative effect of combination with Compound 1, SW620 [1, 7]: Additivity (0.7 to 1.3) | Call, anti-proliferative effect of combination with Compound 1, H460 [2, 7]: Synergy (0 to 0.7) | Call, anti-proliferative effect of combination with Compound 1, HCT116 [3, 7]: Subadditivity (1.3 to 2) | Call, anti-proliferative effect of combination with Compound 1, COLO205 [4, 7]: Synergy (0 to 0.7) | Call, anti-proliferative effect of combination with Compound 1, A549 [5, 7]: Synergy (0 to 0.7)

CN1CC[C@H](c2c(O)cc(O)c3c(=O)cc(-c4ccccc4Cl)oc23)[C@H](O)C1 [Flavopiridol]
Call, anti-proliferative effect of combination with Compound 1, H460 [2, 6]: Additivity (0.7 to 1.3)

S=c1nc[nH]c2nc[nH]c12 [Mercaptopurine]
Call, anti-proliferative effect of combination with Compound 1, SW620 [1, 7]: Subadditivity (1.3 to 2) | Call, anti-proliferative effect of combination with Compound 1, H460 [2, 7]: Additivity (0.7 to 1.3) | Call, anti-proliferative effect of combination with Compound 1, HCT116 [3, 7]: Additivity (0.7 to 1.3) | Call, anti-proliferative effect of combination with Compound 1, COLO205 [4, 7]: Additivity (0.7 to 1.3)

Nc1nc(OCc2ccccc2)c2nc[nH]c2n1 [O6-Benzylguanine]
Call, anti-proliferative effect of combination with Compound 1, COLO205 [4, 7]: Additivity (0.7 to 1.3)

CO[C@@H]1[C@H](N(C)C(=O)c2ccccc2)C[C@H]2O[C@]1(C)n1c3ccccc3c3c4c(c5c6ccccc6n2c5c31)C(=O)NC4 [PKC412]
Call, anti-proliferative effect of combination with Compound 1, SW620 [1, 6]: Additivity (0.7 to 1.3) | Call, anti-proliferative effect of combination with Compound 1, H460 [2, 6]: Antagonism (>2) | Call, anti-proliferative effect of combination with Compound 1, HCT116 [3, 6]: _Additivity | Call, anti-proliferative effect of combination with Compound 1, COLO205 [4, 6]: Subadditivity (1.3 to 2)

CCCS(=O)(=O)Nc1ccc(F)c(C(=O)c2c[nH]c3ncc(-c4ccc(Cl)cc4)cc23)c1F [PLX4032]
Call, anti-proliferative effect of combination with Compound 1, H460 [2, 6]: Additivity (0.7 to 1.3) | Call, anti-proliferative effect of combination with Compound 1, HCT116 [3, 6]: Additivity (0.7 to 1.3) | Call, anti-proliferative effect of combination with Compound 1, COLO205 [4, 6]: Additivity (0.7 to 1.3) | Call, anti-proliferative effect of combination with Compound 1, A549 [5, 6]: Additivity (0.7 to 1.3)

Tunicamycin
Call, anti-proliferative effect of combination with Compound 1, SW620 [1, 6]: Additivity (0.7 to 1.3) | Call, anti-proliferative effect of combination with Compound 1, H460 [2, 6]: Additivity (0.7 to 1.3) | Call, anti-proliferative effect of combination with Compound 1, HCT116 [3, 6]: Synergy (0 to 0.7) | Call, anti-proliferative effect of combination with Compound 1, COLO205 [4, 6]: Additivity (0.7 to 1.3)
